Measurements published in US4287206A, “Halogen derivatives of 8-hydroxycarboxylic acids; the processes for their preparation and medicaments in which they are present” (priority 1978, dated 1981).
Where two headings read alike, the source gives them in different places.

Experiments:
mice = assay: Motor activity in mice (activity meters with photoelectric cells); assay type: in vivo
Description: The motor activity was determined with the aid of activity meters having photoelectric cells (Boissier and Simon, Arch. int. Pharmacodyn. 1965, 158, 212-221). A minimum of 10 animals was always used per batch.
The mice are placed in the activity meter just after the oral or intraperitoneal administration of the product acccording to the invention, obtained in accordance with Example I. The motor activity is measured as from the introduction into the activity meter up to the 60th minute. The counters are read after 30 minutes, then reset to 0 and read every 10 minutes for 30 minutes.

[1] = Determination of the acute toxicity to mice (BEHRENS and KARBER); details: mouse, in vivo
Description: All the experiments reported below were carried out on male rats having a weight of between 170 and 220 g (Wistar AF strain) and male mice having a weight of between 18 and 23 g (Swiss NMRI strain), unless otherwise stated in the following text.
Determination of the acute toxicity to mice
Method used: BEHRENS and KARBER

CC1CC(c2ccc(Cl)cc2)C(c2ccccc2)C(=O)O1 (stereo not drawn) [Example I, trans-4-(4'-chlorophenyl)-6-methyl-3-phenyl-3,4,5,6-tetrahydropyrone-2]
Number of rays passed through by mice (mice; Table Ia, 1 mg/kg intraperitoneal, 30 + 20 min): 163
Number of rays passed through by mice (mice; Table Ia, 1 mg/kg intraperitoneal, 30 + 30 min): 235
Number of rays passed through by mice (mice; Table Ia, 1 mg/kg intraperitoneal, 30 min): 400
Number of rays passed through by mice (mice; Table Ia, 2 mg/kg intraperitoneal, 30 + 10 min): 114
Number of rays passed through by mice (mice; Table Ia, 2 mg/kg intraperitoneal, 30 + 20 min): 231
Number of rays passed through by mice (mice; Table Ia, 2 mg/kg intraperitoneal, 30 + 30 min): 331
Number of rays passed through by mice (mice; Table Ia, 2 mg/kg intraperitoneal, 30 min): 474
Number of rays passed through by mice (mice; Table Ia, 4 mg/kg intraperitoneal, 30 + 10 min): 129
Number of rays passed through by mice (mice; Table Ia, 4 mg/kg intraperitoneal, 30 + 20 min): 269
Number of rays passed through by mice (mice; Table Ia, 4 mg/kg intraperitoneal, 30 + 30 min): 322
Number of rays passed through by mice (mice; Table Ia, 4 mg/kg intraperitoneal, 30 min): 529
Number of rays passed through by mice (mice; Table Ia, 4 mg/kg oral, 30 + 10 min): 139
Number of rays passed through by mice (mice; Table Ia, 4 mg/kg oral, 30 + 20 min): 257
Number of rays passed through by mice (mice; Table Ia, 4 mg/kg oral, 30 + 30 min): 386
Number of rays passed through by mice (mice; Table Ia, 4 mg/kg oral, 30 min): 462
Number of rays passed through by mice (mice; Table Ia, 8 mg/kg intraperitoneal, 30 + 10 min): 147
Number of rays passed through by mice (mice; Table Ia, 8 mg/kg intraperitoneal, 30 + 20 min): 309
Number of rays passed through by mice (mice; Table Ia, 8 mg/kg intraperitoneal, 30 + 30 min): 467
Number of rays passed through by mice (mice; Table Ia, 8 mg/kg intraperitoneal, 30 min): 659
Number of rays passed through by mice (mice; Table Ia, 8 mg/kg oral, 30 + 10 min): 157
Number of rays passed through by mice (mice; Table Ia, 8 mg/kg oral, 30 + 20 min): 314
Number of rays passed through by mice (mice; Table Ia, 8 mg/kg oral, 30 + 30 min): 461
Number of rays passed through by mice (mice; Table Ia, 8 mg/kg oral, 30 min): 478
Number of rays passed through by mice (mice; Table Ia, 16 mg/kg intraperitoneal, 30 + 10 min): 176
Number of rays passed through by mice (mice; Table Ia, 16 mg/kg intraperitoneal, 30 + 20 min): 336
Number of rays passed through by mice (mice; Table Ia, 16 mg/kg intraperitoneal, 30 + 30 min): 465
Number of rays passed through by mice (mice; Table Ia, 16 mg/kg intraperitoneal, 30 min): 763
Number of rays passed through by mice (mice; Table Ia, 16 mg/kg oral, 30 + 10 min): 232
Number of rays passed through by mice (mice; Table Ia, 16 mg/kg oral, 30 + 20 min): 428
Number of rays passed through by mice (mice; Table Ia, 16 mg/kg oral, 30 + 30 min): 636
Number of rays passed through by mice (mice; Table Ia, 16 mg/kg oral, 30 min): 629
Number of rays passed through by mice (mice; Table Ia, 32 mg/kg intraperitoneal, 30 + 10 min): 187
Number of rays passed through by mice (mice; Table Ia, 32 mg/kg intraperitoneal, 30 + 20 min): 422
Number of rays passed through by mice (mice; Table Ia, 32 mg/kg intraperitoneal, 30 + 30 min): 594
Number of rays passed through by mice (mice; Table Ia, 32 mg/kg intraperitoneal, 30 min): 891
Number of rays passed through by mice (mice; Table Ia, 32 mg/kg oral, 30 + 10 min): 270
Number of rays passed through by mice (mice; Table Ia, 32 mg/kg oral, 30 + 20 min): 587
Number of rays passed through by mice (mice; Table Ia, 32 mg/kg oral, 30 + 30 min): 869
Number of rays passed through by mice (mice; Table Ia, 32 mg/kg oral, 30 min): 783
Number of rays passed through by mice (mice; Table Ib, 2 mg/kg, route not given, 0 + 10 min): 119
Number of rays passed through by mice (mice; Table Ib, 2 mg/kg, route not given, 30 + 20 min): 221
Number of rays passed through by mice (mice; Table Ib, 2 mg/kg, route not given, 30 + 30 min): 334
Number of rays passed through by mice (mice; Table Ib, 2 mg/kg, route not given, 30 min): 417
Number of rays passed through by mice (mice; Table Ib, 4 mg/kg, route not given, 0 + 10 min): 129
Number of rays passed through by mice (mice; Table Ib, 4 mg/kg, route not given, 30 + 20 min): 259
Number of rays passed through by mice (mice; Table Ib, 4 mg/kg, route not given, 30 + 30 min): 376
Number of rays passed through by mice (mice; Table Ib, 4 mg/kg, route not given, 30 min): 472
Number of rays passed through by mice (mice; Table Ib, 8 mg/kg, route not given, 0 + 10 min): 141
Number of rays passed through by mice (mice; Table Ib, 8 mg/kg, route not given, 30 + 20 min): 286
Number of rays passed through by mice (mice; Table Ib, 8 mg/kg, route not given, 30 + 30 min): 443
Number of rays passed through by mice (mice; Table Ib, 8 mg/kg, route not given, 30 min): 452
Number of rays passed through by mice (mice; Table Ib, 16 mg/kg, route not given, 0 + 10 min): 172
Number of rays passed through by mice (mice; Table Ib, 16 mg/kg, route not given, 30 + 20 min): 359
Number of rays passed through by mice (mice; Table Ib, 16 mg/kg, route not given, 30 + 30 min): 537
Number of rays passed through by mice (mice; Table Ib, 16 mg/kg, route not given, 30 min): 565
Number of rays passed through by mice (mice; Table Ib, 32 mg/kg, route not given, 0 + 10 min): 184
Number of rays passed through by mice (mice; Table Ib, 32 mg/kg, route not given, 30 + 20 min): 376
Number of rays passed through by mice (mice; Table Ib, 32 mg/kg, route not given, 30 + 30 min): 547
Number of rays passed through by mice (mice; Table Ib, 32 mg/kg, route not given, 30 min): 560
LD50 ([1]; ip, intraperitoneal, read-out: LD50 (intraperitoneal administration)): 520 mg/kg
LD50 ([1]; oral, read-out: LD50 (oral administration)): 1050 mg/kg
